Earlier results in patent publication US20190124976A1, “NICOTINE DOSAGE REGIMEN” (priority 2014, published 2019).

Details: reported to be as low as

CN1CCCC1c1cccnc1 (stereo not shown) [nicotine]
minimal lethal dose: 30 mg
